According to US20220296627A1, “Cytidine Derivatives and Methods of Forming Cytidine Derivatives” (Aenorasis Commercial Company of Pharmaceutical and Medical …, priority 2019, published 2022):

Columns and labels:
Assay type in all cases: cell-based
[1] = tested on: A549/WT wild type human lung adenocarcinoma cell line; experiment: Cell growth assay (SRB) in A549/WT; conditions: for Ratio of IC50 in the presence of dipyridamole / IC50 in the absence of dipyridamole / Ratio of IC50 in the presence of, compared to in the absence of, dipyridamole: A549/WT; for Ratio of IC50 in the presence of dipyridamole / IC50 in the absence of dipyridamole: 4-N-acyl and 4-N-phosphoryl derivatives (Table 5); for IC50: Homo sapiens, A549, A549/WT; for Ratio of IC50 in the presence of, compared to in the absence of, dipyridamole: acetylated 4-N-acyl derivatives (Table 7)
Method: (§1) Biological activities of the Gemcitabine derivative (which may be referred to as analogues) described above were evaluated with two assays: • 1. Cell growth assay using the SRB assay in cell lines A549/WT, SW1573/WT, PANC-01 and BXPC-3. • 2. MTT assay in human bladder cancer cell line T-24
(§2) The following cell lines were tested: • A549/WT —wild type human lung adenocarcinoma cell line (1) • SW1573/WT —wild type non-small lung human cell line (2), • PANC-01—human pancreatic cancer cell line (3) • BXPC-3 -epithelial human pancreatic adenocarcinoma cells (4).
(§3) Dipyridamole inhibits adenosine uptake by erythrocytes platelets and endothelial cells in vitro and in vivo. Thus, the present inventors recruited dipyridamole as an inhibitor of the nucleoside transporters of the tumour cells to observe the behaviour of the presently described Gemcitabine derivatives.
(§4) From the IC50 of each compound in the presence of dipyridamole, by dividing it with the IC50 of each compound in the absence of dipyridamole, the present inventors calculated a ratio that compared the efficacy of the analogous presence of dipyridamole.
(§5) Ratio=IC50 in the presence of dipyridamole/IC50 in the absence of dipyridamole • FIG. 10. Ratio of IC50 of 4-N-acyl and 4-N-phosphoryl derivatives in the presence of, compared to in the absence of, dipyridamole, in four cell lines

[2] = tested on: BXPC-3 epithelial human pancreatic adenocarcinoma cells; experiment: Cell growth assay (SRB) in BXPC-3; conditions: for Ratio of IC50 in the presence of dipyridamole / IC50 in the absence of dipyridamole / Ratio of IC50 in the presence of, compared to in the absence of, dipyridamole: BXPC-3; for Ratio of IC50 in the presence of dipyridamole / IC50 in the absence of dipyridamole: 4-N-acyl and 4-N-phosphoryl derivatives (Table 5); for IC50: Homo sapiens, BXPC-3, BXPC-3; for Ratio of IC50 in the presence of, compared to in the absence of, dipyridamole: acetylated 4-N-acyl derivatives (Table 7)
Method: as §1, §2, §3, §4, §5

[3] = tested on: SW1573/WT wild type non-small lung human cell line; experiment: Cell growth assay (SRB) in SW1573/WT; conditions: for IC50: Homo sapiens, SW1573, SW 1573/WT; for Ratio of IC50 in the presence of dipyridamole / IC50 in the absence of dipyridamole / Ratio of IC50 in the presence of, compared to in the absence of, dipyridamole: SW 1573/WT; for Ratio of IC50 in the presence of dipyridamole / IC50 in the absence of dipyridamole: 4-N-acyl and 4-N-phosphoryl derivatives (Table 5); for Ratio of IC50 in the presence of, compared to in the absence of, dipyridamole: acetylated 4-N-acyl derivatives (Table 7)
Method: as §1, §2, §3, §4, §5

[4] = tested on: PANC-01 human pancreatic cancer cell line; experiment: Cell growth assay (SRB) in PANC-01; conditions: for Ratio of IC50 in the presence of dipyridamole / IC50 in the absence of dipyridamole: 4-N-acyl and 4-N-phosphoryl derivatives (Table 5); for IC50: Homo sapiens, Pancreatic cancer cell; for Ratio of IC50 in the presence of, compared to in the absence of, dipyridamole: acetylated 4-N-acyl derivatives (Table 7)
Method: as §1, §2, §3, §4, §5

[5] = tested on: human bladder cancer cell line T-24; experiment: MTT assay, cell viability of T-24 cells; conditions: 100 μM; for inhibition of cell growth (cell viability, MTT), order of potency: 5000 cells/well
Method: as §1
The cell viability of T-24 bladder cancer cells upon treatment with the Gemcitabine derivatives was evaluated using the MTT assay. T24 cancer cells were cultured in DMEM (Gibco) high glucose supplemented with 10% FBS and 1% Penicillin/Streptomycin (100 U/mL Penicillin and 100 μg/mL Streptomycin), at 37 ° C. in humidified atmosphere of 5% CO2.
For the MTT assay 5000 or 10000 cells were seeded in triplicates in 96-well plates. Stock solutions of each derivative were prepared in DMSO/EtOH (1:1 v/v). Then, the cells were treated and incubated with 100 μM of each compound for 24 or 48 hours. After the completion of the incubation time, 10 μL of MTT solution (5 mg/ml in PBS buffer) were added in each well and incubated for 4 hrs. Finally, to stop the reaction, the supernatant from each well was removed and 100 μL of stop mix solution (20% SDS in 50% dimethyl formamide in water) were added. The plate remained in darkness for 2 h and the absorbance was measured at 540 nm via a microplate ELISA reader (Awareness Technology Inc.) with a reference at 630 nm. The % cell viability for each compound was calculated relatively to the absorbance of the untreated cells (control).
Two sets of experiments were performed at concentrations of 100 μM, and the absorption of formazan was measured after 24 and 48 hours.
Another experiment was conducted with the MTT assay where the compounds were incubated for 48 hours at […] derivative concentration where the number of cells seeded per well was 10000.

[6] = 4-N-acyl and 4-N-phosphoryl derivatives (Table 4)
[7] = acetylated 4-N-acyl derivatives (Table 6)

Compound	Ratio of IC50 in the presence of dipyridamole / IC50 in the absence of dipyridamole [1]	IC50 [1, 6] [µM]	Ratio of IC50 in the presence of dipyridamole / IC50 in the absence of dipyridamole [2]	IC50 [2, 6] [µM]	IC50 [3, 6] [µM]	Ratio of IC50 in the presence of dipyridamole / IC50 in the absence of dipyridamole [3]	Ratio of IC50 in the presence of dipyridamole / IC50 in the absence of dipyridamole [4]	IC50 [4, 6] [µM]	Ratio of IC50 in the presence of, compared to in the absence of, dipyridamole [1]	IC50 [1, 7] [µM]	Ratio of IC50 in the presence of, compared to in the absence of, dipyridamole [2]	IC50 [2, 7] [µM]	IC50 [3, 7] [µM]	Ratio of IC50 in the presence of, compared to in the absence of, dipyridamole [3]	IC50 [4, 7] [µM]	Ratio of IC50 in the presence of, compared to in the absence of, dipyridamole [4]	inhibition of cell growth (cell viability, MTT), order of potency ([5]; 24 hours)	inhibition of cell growth (cell viability, MTT), order of potency ([5]; 48 hours)	cell viability (MTT), most potent derivatives ([5]; 10000 cells/well, 48 hours)
CCCCOC(=O)Nc1ccn(C2OC(CO)C(O)C2(F)F)c(=O)n1 (stereo not drawn) [Derivative 2]	3.4	0.7	3.7	0.34	0.46	8	2.4	2.45	–	–	–	–	–	–	–	–	–	–	–
O=C(Nc1ccn(C2OC(CO)C(O)C2(F)F)c(=O)n1)OCCCl (stereo not drawn) [Derivative 3A]	10.5	0.95	27	0.5	0.61	40.9	0.6	3	–	–	–	–	–	–	–	–	–	–	–
O=C1OCCN1c1ccn(C2OC(CO)C(O)C2(F)F)c(=O)n1 (stereo not drawn) [Derivative 3B]	18.1	0.16	24	0.1	0.1	25	23	0.38	–	–	–	–	–	–	–	–	–	–	–
O=C(Nc1ccn(C2OC(CO)C(O)C2(F)F)c(=O)n1)OCCl (stereo not drawn) [Derivative 4]	6.3	0.1	4.5	0.1	0.1	10	22	0.045	–	–	–	–	–	–	–	–	greater potency than the parent drug Gemcitabine	17>4>11 and then Gemcitabine	most potent
C#CCOC(=O)Nc1ccn(C2OC(CO)C(O)C2(F)F)c(=O)n1 (stereo not drawn) [Derivative 5]	11.1	0.45	23	0.24	0.38	13	2.7	1.85	–	–	–	–	–	–	–	–	–	–	–
CC(COC(=O)Nc1ccn(C2OC(CO)C(O)C2(F)F)c(=O)n1)c1ccccc1[N+](=O)[O-] (stereo not drawn) [Derivative 6]	11	0.5	13.1	0.34	0.43	11	4	1.6	–	–	–	–	–	–	–	–	–	–	–
CC(=O)OCC1OC(n2ccc(N3CCOC3=O)nc2=O)C(F)(F)C1OC(C)=O (stereo not drawn) [Derivative 16]	–	–	–	–	–	–	–	–	2.7	6.2	3.4	5	4.2	3.8	25	1	–	–	–
COc1cc(COC(=O)Nc2ccn(C3OC(COC(C)=O)C(OC(C)=O)C3(F)F)c(=O)n2)c([N+](=O)[O-])cc1OC (stereo not drawn) [Derivative 20]	–	–	–	–	–	–	–	–	7.5	0.62	4.6	0.6	0.57	17.54	3.9	4	–	–	–

Continued, in another order:

Ratio of IC50 in the presence of dipyridamole / IC50 in the absence of dipyridamole [1]	IC50 [1, 6] [µM]	Ratio of IC50 in the presence of dipyridamole / IC50 in the absence of dipyridamole [2]	IC50 [2, 6] [µM]	IC50 [3, 6] [µM]	Ratio of IC50 in the presence of dipyridamole / IC50 in the absence of dipyridamole [3]	Ratio of IC50 in the presence of dipyridamole / IC50 in the absence of dipyridamole [4]	IC50 [4, 6] [µM]	Ratio of IC50 in the presence of, compared to in the absence of, dipyridamole [1]	IC50 [1, 7] [µM]	Ratio of IC50 in the presence of, compared to in the absence of, dipyridamole [2]	IC50 [2, 7] [µM]	IC50 [3, 7] [µM]	Ratio of IC50 in the presence of, compared to in the absence of, dipyridamole [3]	IC50 [4, 7] [µM]	Ratio of IC50 in the presence of, compared to in the absence of, dipyridamole [4]	Compound	inhibition of cell growth (cell viability, MTT), order of potency ([5]; 24 hours)	inhibition of cell growth (cell viability, MTT), order of potency ([5]; 48 hours)	cell viability (MTT), most potent derivatives ([5]; 10000 cells/well, 48 hours)
10.4	0.24	25	0.15	0.17	14	4.2	0.48	–	–	–	–	–	–	–	–	CC(C)COC(=O)Nc1ccn(C2OC(CO)C(O)C2(F)F)c(=O)n1 (stereo not drawn) [Derivative 8]	–	–	–
–	–	–	–	–	–	–	–	2.85	6.3	2.8	5	6.8	3.6	25	1	CCOC(=O)Nc1ccn(C2OC(COC(C)=O)C(OC(C)=O)C2(F)F)c(=O)n1 (stereo not drawn) [Derivative 13]	–	–	–
–	–	–	–	–	–	–	–	3.7	3.7	3.3	3	4	4.5	10	2.5	CC(=O)OCC1OC(n2ccc(NC(=O)OCCCl)nc2=O)C(F)(F)C1OC(C)=O (stereo not drawn) [Derivative 15]	–	–	–
–	–	–	–	–	–	–	–	6.5	0.9	10.8	0.72	0.61	12.7	6.6	3.1	C#CCOC(=O)Nc1ccn(C2OC(COC(C)=O)C(OC(C)=O)C2(F)F)c(=O)n1 (stereo not drawn) [Derivative 18]	–	–	–
–	–	–	–	–	–	–	–	15	1.6	8	0.77	1.15	3.5	8	1.1	CC(=O)OCC1OC(n2ccc(NC(=O)OCC(C)c3ccccc3[N+](=O)[O-])nc2=O)C(F)(F)C1OC(C)=O (stereo not drawn) [Derivative 19]	–	–	–
–	–	–	–	–	–	–	–	2.6	8	2.8	3.2	4.3	3.7	25	1	CC(=O)OCC1OC(n2ccc(NC(=O)OCC(C)C)nc2=O)C(F)(F)C1OC(C)=O (stereo not drawn) [Derivative 21]	–	–	–
–	–	–	–	–	–	–	–	4	0.4	4.1	0.45	0.26	13.4	3.7	1.6	CC(=O)Nc1ccn(C2OC(COC(C)=O)C(OC(C)=O)C2(F)F)c(=O)n1 (stereo not drawn) [Derivative 22]	–	–	–
